Measured values from PubChem BioAssay (NCI).
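Protocol summary: plate cells (96-well), add compound at 5 concentrations, incubate 48 h, interpolate endpoints linearly. TGI marks complete inhibition of growth.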

Key:
Assay in all cases: NCI tumour cell line growth inhibition, 48 h
HOP-92 NSCLC = tested on: HOP-92 NSCLC
MCF7 breast = tested on: MCF7 breast
KM12 colon = tested on: KM12 colon
SNB-75 CNS = tested on: SNB-75 CNS
T-47D breast = tested on: T-47D breast
MDA-N = tested on: MDA-N
EKVX NSCLC = tested on: EKVX NSCLC
COLO 205 colon = tested on: COLO 205 colon
MDA-MB-435 = tested on: MDA-MB-435
CCRF-CEM leukemia = tested on: CCRF-CEM leukemia
UACC-62 melanoma = tested on: UACC-62 melanoma
SF-539 CNS = tested on: SF-539 CNS
SK-MEL-5 melanoma = tested on: SK-MEL-5 melanoma
NCI/ADR-RES ovarian = tested on: NCI/ADR-RES ovarian
A549 NSCLC = tested on: A549 NSCLC
UO-31 renal = tested on: UO-31 renal
786-0 renal = tested on: 786-0 renal
RXF 393 renal = tested on: RXF 393 renal
TK-10 renal = tested on: TK-10 renal
OVCAR-5 ovarian = tested on: OVCAR-5 ovarian
OVCAR-3 ovarian = tested on: OVCAR-3 ovarian
M14 melanoma = tested on: M14 melanoma
SF-295 CNS = tested on: SF-295 CNS
DU-145 prostate = tested on: DU-145 prostate
U251 CNS = tested on: U251 CNS
K-562 leukemia = tested on: K-562 leukemia
OVCAR-4 ovarian = tested on: OVCAR-4 ovarian
UACC-257 melanoma = tested on: UACC-257 melanoma
SNB-19 CNS = tested on: SNB-19 CNS
SK-MEL-2 melanoma = tested on: SK-MEL-2 melanoma
SW-620 colon = tested on: SW-620 colon
SF-268 CNS = tested on: SF-268 CNS
NCI-H226 lung = tested on: NCI-H226 lung
HCC-2998 colon = tested on: HCC-2998 colon
PC-3 prostate = tested on: PC-3 prostate
SK-MEL-28 melanoma = tested on: SK-MEL-28 melanoma
RPMI-8226 leukemia = tested on: RPMI-8226 leukemia
MDA-MB-231 breast = tested on: MDA-MB-231 breast
HCT-116 colon = tested on: HCT-116 colon
HCT-15 colon = tested on: HCT-15 colon
A498 renal = tested on: A498 renal
LOX IMVI melanoma = tested on: LOX IMVI melanoma
HS 578T breast = tested on: HS 578T breast
CAKI-1 renal = tested on: CAKI-1 renal
SN12C renal = tested on: SN12C renal
SK-OV-3 ovarian = tested on: SK-OV-3 ovarian
HOP-62 NSCLC = tested on: HOP-62 NSCLC
ACHN renal = tested on: ACHN renal
IGROV1 ovarian = tested on: IGROV1 ovarian
OVCAR-8 ovarian = tested on: OVCAR-8 ovarian
NCI-H460 lung = tested on: NCI-H460 lung
NCI-H522 lung = tested on: NCI-H522 lung
HL-60(TB) leukemia = tested on: HL-60(TB) leukemia
HT29 colon = tested on: HT29 colon
MALME-3M melanoma = tested on: MALME-3M melanoma
SR leukemia = tested on: SR leukemia
NCI-H23 lung = tested on: NCI-H23 lung
MOLT-4 leukemia = tested on: MOLT-4 leukemia

Nc1nc2c(ncn2CC2CCC(CO)C2)c(=O)[nH]1 (stereo not given)
TGI (HOP-92 NSCLC): > 100 µM | TGI (MCF7 breast): > 100 µM | TGI (KM12 colon): > 100 µM | TGI (SNB-75 CNS): > 100 µM | TGI (T-47D breast): > 100 µM | TGI (MDA-N): > 100 µM | TGI (EKVX NSCLC): > 100 µM | TGI (COLO 205 colon): > 100 µM | TGI (MDA-MB-435): > 100 µM | TGI (CCRF-CEM leukemia): > 100 µM | TGI (UACC-62 melanoma): > 100 µM | TGI (SF-539 CNS): > 100 µM | TGI (SK-MEL-5 melanoma): > 100 µM | TGI (NCI/ADR-RES ovarian): > 100 µM | TGI (A549 NSCLC): > 100 µM | TGI (UO-31 renal): > 100 µM | TGI (786-0 renal): > 100 µM | TGI (RXF 393 renal): > 100 µM | TGI (TK-10 renal): > 100 µM | TGI (OVCAR-5 ovarian): > 100 µM | TGI (OVCAR-3 ovarian): > 100 µM | TGI (M14 melanoma): > 100 µM | TGI (SF-295 CNS): > 100 µM | TGI (DU-145 prostate): > 100 µM | TGI (U251 CNS): > 100 µM | TGI (K-562 leukemia): > 100 µM | TGI (OVCAR-4 ovarian): > 100 µM | TGI (UACC-257 melanoma): > 100 µM | TGI (SNB-19 CNS): > 100 µM | TGI (SK-MEL-2 melanoma): > 100 µM | TGI (SW-620 colon): > 100 µM | TGI (SF-268 CNS): > 100 µM | TGI (NCI-H226 lung): > 100 µM | TGI (HCC-2998 colon): > 100 µM | TGI (PC-3 prostate): > 100 µM | TGI (SK-MEL-28 melanoma): > 100 µM | TGI (RPMI-8226 leukemia): > 100 µM | TGI (MDA-MB-231 breast): > 100 µM | TGI (HCT-116 colon): > 100 µM | TGI (HCT-15 colon): > 100 µM | TGI (A498 renal): > 100 µM | TGI (LOX IMVI melanoma): > 100 µM | TGI (HS 578T breast): > 100 µM | TGI (CAKI-1 renal): > 100 µM | TGI (SN12C renal): > 100 µM | TGI (SK-OV-3 ovarian): > 100 µM | TGI (HOP-62 NSCLC): > 100 µM | TGI (ACHN renal): > 100 µM

N#CC(=N)c1ncn(CCO)c1NC(=O)C(F)(F)F
TGI (IGROV1 ovarian): > 100 µM | TGI (KM12 colon): > 100 µM | TGI (OVCAR-8 ovarian): > 100 µM | TGI (SNB-75 CNS): > 100 µM | TGI (T-47D breast): > 100 µM | TGI (NCI-H460 lung): > 100 µM | TGI (NCI-H522 lung): > 100 µM | TGI (MDA-N): > 100 µM | TGI (EKVX NSCLC): > 100 µM | TGI (COLO 205 colon): > 100 µM | TGI (MDA-MB-435): > 100 µM | TGI (CCRF-CEM leukemia): > 100 µM | TGI (UACC-62 melanoma): > 100 µM | TGI (SF-539 CNS): > 100 µM | TGI (SK-MEL-5 melanoma): > 100 µM | TGI (NCI/ADR-RES ovarian): > 100 µM | TGI (A549 NSCLC): > 100 µM | TGI (786-0 renal): > 100 µM | TGI (RXF 393 renal): > 100 µM | TGI (TK-10 renal): > 100 µM | TGI (OVCAR-5 ovarian): > 100 µM | TGI (OVCAR-3 ovarian): > 100 µM | TGI (M14 melanoma): > 100 µM | TGI (SF-295 CNS): > 100 µM | TGI (DU-145 prostate): > 100 µM | TGI (U251 CNS): > 100 µM | TGI (K-562 leukemia): > 100 µM | TGI (OVCAR-4 ovarian): > 100 µM | TGI (UACC-257 melanoma): > 100 µM | TGI (SNB-19 CNS): > 100 µM | TGI (SK-MEL-2 melanoma): > 100 µM | TGI (SW-620 colon): > 100 µM | TGI (HL-60(TB) leukemia): > 100 µM | TGI (SF-268 CNS): > 100 µM | TGI (HT29 colon): > 100 µM | TGI (MALME-3M melanoma): > 100 µM | TGI (NCI-H226 lung): > 100 µM | TGI (HCC-2998 colon): > 100 µM | TGI (PC-3 prostate): > 100 µM | TGI (SK-MEL-28 melanoma): > 100 µM | TGI (RPMI-8226 leukemia): > 100 µM | TGI (MDA-MB-231 breast): > 100 µM | TGI (SR leukemia): > 100 µM | TGI (NCI-H23 lung): > 100 µM | TGI (HCT-116 colon): > 100 µM | TGI (HCT-15 colon): > 100 µM | TGI (A498 renal): > 100 µM | TGI (LOX IMVI melanoma): > 100 µM | TGI (HS 578T breast): > 100 µM | TGI (CAKI-1 renal): > 100 µM | TGI (SN12C renal): > 100 µM | TGI (SK-OV-3 ovarian): > 100 µM | TGI (HOP-62 NSCLC): > 100 µM | TGI (ACHN renal): > 100 µM

COc1c2c(cc3nc4ccccc4nc13)CC[C@H](NC(C)=O)c1cc(=O)c(SC)ccc1-2
TGI (HOP-92 NSCLC): > 55.9 µM | TGI (MCF7 breast): > 100 µM | TGI (IGROV1 ovarian): 4.36 µM | TGI (KM12 colon): 3 µM | TGI (OVCAR-8 ovarian): > 32.7 µM | TGI (NCI-H460 lung): > 100 µM | TGI (NCI-H522 lung): 1.69 µM | TGI (MDA-N): 0.329 µM | TGI (EKVX NSCLC): 8.63 µM | TGI (COLO 205 colon): 3.31 µM | TGI (CCRF-CEM leukemia): > 100 µM | TGI (UACC-62 melanoma): 44.6 µM | TGI (SF-539 CNS): 5.28 µM | TGI (SK-MEL-5 melanoma): 10.8 µM | TGI (NCI/ADR-RES ovarian): > 100 µM | TGI (A549 NSCLC): > 100 µM | TGI (UO-31 renal): 28.7 µM | TGI (786-0 renal): 39.8 µM | TGI (RXF 393 renal): > 49.9 µM | TGI (TK-10 renal): > 59.3 µM | TGI (OVCAR-5 ovarian): > 100 µM | TGI (OVCAR-3 ovarian): > 100 µM | TGI (M14 melanoma): 19.3 µM | TGI (SF-295 CNS): > 44.6 µM | TGI (DU-145 prostate): 51.3 µM | TGI (U251 CNS): 10.6 µM | TGI (K-562 leukemia): > 42.2 µM | TGI (OVCAR-4 ovarian): 38.7 µM | TGI (UACC-257 melanoma): 30.5 µM | TGI (SNB-19 CNS): > 100 µM | TGI (SK-MEL-2 melanoma): > 55.2 µM | TGI (SW-620 colon): > 100 µM | TGI (SF-268 CNS): > 56.5 µM | TGI (HT29 colon): 6.23 µM | TGI (NCI-H226 lung): 32.2 µM | TGI (HCC-2998 colon): > 24.6 µM | TGI (PC-3 prostate): > 69.6 µM | TGI (SK-MEL-28 melanoma): > 100 µM | TGI (RPMI-8226 leukemia): > 100 µM | TGI (MDA-MB-231 breast): 36.1 µM | TGI (SR leukemia): > 32.5 µM | TGI (NCI-H23 lung): 0.777 µM | TGI (HCT-116 colon): 27.3 µM | TGI (HCT-15 colon): 19 µM | TGI (A498 renal): > 90.9 µM | TGI (LOX IMVI melanoma): > 71.6 µM | TGI (HS 578T breast): 0.7 µM | TGI (CAKI-1 renal): > 42.6 µM | TGI (SN12C renal): 34.2 µM | TGI (SK-OV-3 ovarian): > 70.9 µM | TGI (HOP-62 NSCLC): > 100 µM | TGI (MOLT-4 leukemia): > 65.4 µM | TGI (ACHN renal): > 64.5 µM
